Values of other authors as cited in US20100172982A1, “SUSTAINED RELEASE FORMULATIONS OF DIVALPROEX SODIUM” (SUN PHARMACEUTICAL INDUSTRIES LIMITED, priority 2007, published 2010).

Details: children

elimination half-life: four and fourteen
Structure (SMILES): CCCC(CCC)C(=O)O [valproic acid, 2-propylpenatnoic acid]
